Data from patent US4316898A, “Cephalosporins” (Boehringer Ingelheim KG, priority 1979, dated 1982).
Values after ≈ are worked out from the molar mass of the structure shown.

Tests used:
[1] = system: E. coli R+TEM; assay: Serial dilution test in the microtiter system, MIC against E. coli R+TEM (β-lactamase carrier); type: cell-based; conditions: Escherichia coli, read-out: MIC, E. coli R + TEM
Protocol: (§1) The tests were performed using the serial dilution test in the microtiter system. The effect of the test compounds on bacteriostasis was examined at the following concentrations: 80, 40, 20, 10, 5, 2.5, 1.25, 0.6, 0.3, 0.08 and 0.02 μgm/ml. The nutrient medium consisted of 10 gm of peptone, 8 gm of meat extract oxoid, 3 gm of sodium chloride, and 2 gm of sec. sodium phosphate diluted with distilled water to […] (pH 7.2-7.4). Only in the test against streptococci 1% of glucose was added. The age of the primary cultures was approximately 20 hours. The standardization of the bacteria suspension was effected using a photometer according to the method of Eppendorf (test tube .phi. 14 mm, filter 546 nm), using for comparison a barium sulfate suspension formed by the addition of 3.0 ml of 1% barium chloride solution to 97 ml of 1% sulfuric acid. After the standardization,Streptococcus aronson was further diluted to a concentration of 1:15, and the other bacteria to a concentration of 1:1500, using a sodium chloride solution.
(§2) 16 mgm of the particular test compound were put into a 10 ml measuring flask, and the flask was subsequently filled to the mark with solvent. The further dilution series was standardized with distilled water or the appropriate solvent.
(§3) The cavities of the microtiter plates were filled with 0.2 ml of nutrient medium. 0.01 ml of the appropriate test compound solution was then added, followed by inoculation with 0.01 ml of the standardized bacteria suspension. The bacteria were incubated at 37° C. for 18 to 20 hours. Control tests using only the solvent were carried out simultaneously.
(§4) The measurement was carried out macroscopically to determine the minimum inhibitory concentration (the lowest still bacteriostatically effective concentration).
(§5) The following test organisms were used:
(§6) Staphylococcus aureus SG 511, St. aureus E 88 (β-lactamase carrier), Escherichia coli ATCC 11 775, Pseudomonas aeruginosa Hamburgensis and Pseudomonas aeruginosa Walter, Serratia macrescens ATCC 13 880, Klebsiella pneumoniae ATCC 10 031 and 272, Proteus mirabilis Hamburgensis, Proteus rettgeri Eb. cloaceae ATCC 13047, and E. coli R+TEM (β-lactamase carrier).
(§7) The following tables show the determined minimum inhibitory concentrations (MIC) for a few representative compounds (E=Na) of the present invention, and two known cephalosporins for comparison: […]

[2] = system: Staphylococcus aureus SG 511; assay: Serial dilution test in the microtiter system, MIC against S. aureus SG 511; type: cell-based; conditions: SG511, minimum inhibitory concentration, 37° C., 18 to 20 hours
Protocol: as §1, §2, §3, §4, §5, §6, §7

[3] = system: St. aureus E 88; assay: Serial dilution test in the microtiter system, MIC against S. aureus E 88 (β-lactamase carrier); type: cell-based; conditions: Staphylococcus aureus, E88, minimum inhibitory concentration, 37° C., 18 to 20 hours
Protocol: as §1, §2, §3, §4, §5, §6, §7

[4] = system: Eb. cloaceae ATCC 13047; assay: Serial dilution test in the microtiter system, MIC against Eb. cloaceae ATCC 13047; type: cell-based; conditions: minimum inhibitory concentration; 37° C., 18 to 20 hours
Protocol: as §1, §2, §3, §4, §5, §6, §7

[5] = system: Proteus mirabilis Hamburgensis; assay: Serial dilution test in the microtiter system, MIC against Proteus mirabilis Hamburgensis; type: cell-based; conditions: minimum inhibitory concentration, 37° C., 18 to 20 hours, read-out: MIC, Prot. Mir. Hbg.
Protocol: as §1, §2, §3, §4, §5, §6, §7

[6] = system: Klebsiella pneumoniae 272; assay: Serial dilution test in the microtiter system, MIC against Klebsiella pneumoniae 272; type: cell-based; conditions: minimum inhibitory concentration, 37° C., 18 to 20 hours, read-out: MIC, Klebs. pneum. 272
Protocol: as §1, §2, §3, §4, §5, §6, §7

[7] = system: Pseudomonas aeruginosa Walter; assay: Serial dilution test in the microtiter system, MIC against Pseudomonas aeruginosa Walter; type: cell-based; conditions: minimum inhibitory concentration, 37° C., 18 to 20 hours, read-out: MIC, Pseud. aerug. Walter
Protocol: as §1, §2, §3, §4, §5, §6, §7

[8] = system: E. coli ATCC 11775; assay: In vivo test in mice against experimental E. coli infection; set-up: species or system Female NMRI mice; conditions: Escherichia coli, ATCC11775, sc, 168 h; subcutaneous; per dose; dose at which 50% of the animals survived; observation 7 days
Protocol: (§8) A series of the compounds according to the invention was tested in vivo in mice against experimental infections. As pathogenic bacteria were used E. coli ATCC 11775 and Pseudomonas aeruginosa Walter. An intraperitoneal infection was induced in each mouse with 0.2 ml of a 5% mucin suspension of the bacteria corresponding of approximately 1.4×10^6 E. coli cells and 1.3×10^6 Pseudomonas cells per mouse. Female NMRI mice were used, divided into groups of 10 animals. Two groups were untreated and the remaining groups were treated with different doses of the cephalosporins to be tested to determine the ED50 (dose at which 50% of the animals survived). The groups infected with E. coli were on the first day treated with the test compound three times ([…] post infectionem) and on the second day twice. The groups with the Pseudomonas infection were on the first day treated with the test compound six times (1, 3, 5, 7, 9 and 11 hours post infectionem), and on the following two days twice.
(§9) The observation time was in both cases 7 days.

[9] = system: Klebsiella pneumoniae ATCC 10 031; assay: Serial dilution test in the microtiter system, MIC against Klebsiella pneumoniae ATCC 10031; type: cell-based; conditions: minimum inhibitory concentration, 37° C., 18 to 20 hours, read-out: MIC, Klebs. pneum. ATCC 10031
Protocol: as §1, §2, §3, §4, §5, §6, §7

[10] = system: Proteus rettgeri; assay: Serial dilution test in the microtiter system, MIC against Proteus rettgeri; type: cell-based; conditions: Providencia rettgeri; minimum inhibitory concentration; 37° C., 18 to 20 hours; read-out: MIC, Prot. rettg.
Protocol: as §1, §2, §3, §4, §5, §6, §7

[11] = system: Pseudomonas aeruginosa Hamburgensis; assay: Serial dilution test in the microtiter system, MIC against Pseudomonas aeruginosa Hamburgensis; type: cell-based; conditions: minimum inhibitory concentration, 37° C., 18 to 20 hours, read-out: MIC, Pseud. aerug. Hbg.
Protocol: as §1, §2, §3, §4, §5, §6, §7

[12] = system: Pseudomonas aeruginosa Walter; assay: In vivo test in mice against experimental Pseudomonas infection; set-up: species or system Female NMRI mice; conditions: Pseudomonas aeruginosa, sc, 168 h; subcutaneous; per dose; dose at which 50% of the animals survived; observation 7 days
Protocol: as §8, §9

[13] = system: Serratia macrescens ATCC 13 880; assay: Serial dilution test in the microtiter system, MIC against Serratia marcescens ATCC 13880; type: cell-based; conditions: read-out: MIC, Serr. marcesc. ATCC 13880
Protocol: as §1, §2, §3, §4, §5, §6, §7

[14] = system: Escherichia coli ATCC 11 775; assay: Serial dilution test in the microtiter system, MIC against E. coli ATCC 11775; type: cell-based; conditions: minimum inhibitory concentration, 37° C., 18 to 20 hours
Protocol: as §1, §2, §3, §4, §5, §6, §7

Structure (SMILES) | MIC [1] | MIC [2] | MIC [3] | MIC [4] | MIC [5] | MIC [6] | MIC [7] | ED50 [8] | MIC [9] | MIC [10] | MIC [11] | ED50 [12] | MIC [13] | MIC [14]
CNS(=O)(=O)c1ccc(Nc2ncc(NC(=O)N[C@@H](C(=O)N[C@@H]3C(=O)N4C(C(=O)O)=C(CSc5nnnn5C)CS[C@H]34)c3ccc(O)cc3)c(O)n2)cc1 [K] | 2 µg/mL | 0.5 µg/mL (≈ 0.626 µM) | 4 µg/mL (≈ 5.01 µM) | 0.5 µg/mL (≈ 0.626 µM) | 0.06 µg/mL (≈ 0.0751 µM) | 0.13 µg/mL (≈ 0.163 µM) | 2 µg/mL (≈ 2.5 µM) | 0.3 mg/kg | 0.06 µg/mL (≈ 0.0751 µM) | 0.25 µg/mL (≈ 0.313 µM) | 4 µg/mL (≈ 5.01 µM) | 3.6 mg/kg | 0.13 µg/mL (≈ 0.163 µM) | < 0.03 µg/mL
Cn1nnnc1SCC1=C(C(=O)O)N2C(=O)[C@@H](NC(=O)[C@H](NC(=O)Nc3cnc(NC4CCC(O)CC4)nc3O)c3ccc(O)cc3)[C@H]2SC1 (stereo partly shown) [C] | 8 µg/mL | 1 µg/mL (≈ 1.37 µM) | 8 µg/mL (≈ 11 µM) | 0.5 µg/mL (≈ 0.687 µM) | 0.13 µg/mL (≈ 0.179 µM) | 0.5 µg/mL (≈ 0.687 µM) | 4 µg/mL (≈ 5.5 µM) | 0.4 mg/kg | 0.5 µg/mL (≈ 0.687 µM) | 1 µg/mL (≈ 1.37 µM) | 4 µg/mL (≈ 5.5 µM) | 4.2 mg/kg | 0.5 µg/mL (≈ 0.687 µM) | 0.13 µg/mL (≈ 0.179 µM)
